Assay results: US11479536B1 (King Abdulaziz University, priority 2022, dated 2022)
“And” between values parts separate entries of the source, which are not always exact repeats. Equal values may be shown once. One block for each molecule: values may come before it.

Legend:
T47D spheroids [1] = assay: Mitochondrial membrane potential assay (JC-1), T47D spheroids; type: cell-based, human; settings: 48 h post treatment at IC50, control 15.67±2.05%
Procedure: (§1) The mitochondrial membrane potential was investigated in response to the treatment with MAK compounds. This assay depends on the measurement of the aggregate fluorescence for Tetraethylbenzimidazolylcarbocyanine iodide (JC-1). This cationic dye accumulates in the energized mitochondria, and the increase in aggregate fluorescence indicates mitochondrial […] while the reduction indicates the depolarization state.
(§2) After growing the cells and treating them with MAK compound for 48 hours, 2 μM of JC-1 final concentration was added and the mixture was incubated for 1 hour at 37° C. in presence of 5% CO2. Then, the samples were analyzed using flow cytometry. Mean values and standard deviation of replicates were calculated in comparison to the control group.

T47D spheroids [2] = assay: Live and dead assay of tumor spheroids, T47D; type: cell-based, human; settings: 48 h post treatment, control 2.60±0.31%
Procedure: (§3) The Live/Dead assay contains a mixture of two staining fluorescent dyes that label live and dead cells to enable differentiation between them. The cell viability of the cells in response to the treatment with MAK compounds was examined. The cells were grown for 48 hours and treated with MAK compound for additional 48 hours, then Cytox RED solution reagent was added. After incubation at 37° C. under 5% CO2 for 1 hour, the samples were immediately analyzed by flow cytometry. Mean values and standard deviation of replicates were calculated in comparison to the control group.

MCF7 spheroids [3] = assay: Live and dead assay of tumor spheroids, MCF7; type: cell-based, human; settings: 48 h post treatment, control 10.33±2.40%
Procedure: as §3

MCF7 spheroids [4] = assay: Mitochondrial membrane potential assay (JC-1), MCF7 spheroids; type: cell-based, human; settings: 48 h post treatment at IC50, control 18.01±0.58%
Procedure: as §1, §2

MCF7 spheroids [5] = assay: Reactive oxygen species (CellROX) assay, MCF7 spheroids; type: cell-based, human; settings: 48 h treatment, CellROX Green
Procedure: (§4) The CELLROX (Invitrogen) assay was used to measure the level of reactive oxygen species (ROS) in live cells. […] The technique was used to investigate the capability of tested compounds to induce intracellular ROS. After forming the spheroids for 48 hours and treating them for additional 48 hours with MAK compound, spheroids were incubated in culture medium with 500 nM CellROX for 60 minutes at 37° C. in presence of 5% CO2, and the samples were immediately analyzed on flow cytometry using 488-nm excitation for the CellROX® Green.

AMPK (A1/B1/G2) = biological target: T1, AMPK (A1/B1/G2) (Homo sapiens, UniProt Q13131+Q9UGJ0+Q9Y478); assay: Cell-free AMPK inhibition assay, AMPK (A1/B1/G2) Kinase Enzyme system; type: biochemical; settings: recombinant full-length human AMPK
T1 construct: This system includes a recombinant full-length human AMPK enzyme; purchased Promega
Procedure: The inhibitory effect of serial concentrations of MAK compounds on AMPK Kinase activity was investigated using the highly sensitive AMPK (A1/B1/G2) Kinase Enzyme assay system (Promega, Madison Wis. USA). This system includes a recombinant full-length human AMPK enzyme and a substrate for the enzyme. The experiment was conducted according to the manufacturer's instructions in the provided protocol. Mean values of replicates were calculated in comparison to the control group.

T47D spheroids [6] = assay: Cytotoxicity assay (MTT) in spheroid culture, T47D; type: cell-based, human
Procedure: (§5) 1×10^4 cells of each cell line (MCF7 and T47D) were seeded into ultra-low attachment 96 well plate at 37° C. and grown for 48 hours in DMEM media to result in the formation of spheroids. Then, the cells were subjected to the different treatment conditions before performing the assays.
(§6) The cytotoxic effects of MAK compounds were assessed against MCF7 and T47D cell lines using MTT cell viability assay. The cells were treated for 48 hours with different concentrations of each MAK compound and the control cells were subjected to the vehicle (0.1% DMSO). Then, 10% of 5 mg/mL MTT was added to each well containing treated or control cells, and mixture was incubated at 37° C. for 3 hours. After that, the MTT-containing media was replaced with 100 μL DMSO and incubated for 10 minutes at room temperature before measuring the absorbance for each well at 570 nm. According to the measured absorbance, the IC50 was calculated for each compound. All the experiments were performed in biological and experimental replicates.

T47D cell line = assay: Cytotoxic assay (MTT) in monolayer model, T47D; type: cell-based; settings: Homo sapiens, 48 h, read-out: IC50 cytotoxic assay against T47D, monolayer
Procedure: (§7) 1×10^6 cells of the human breast cancer cell lines MCF7 and T47D were seeded and grown at 37° C. with 5% CO2, in a Dulbecco's Modified Eagle Medium (DMEM) with 10% fetal bovine serum (Sigma). The cells were maintained until they reached the confluence over 90%. Then, the cells were subjected to the different treatment conditions before performing the assays.
as §6

MCF7 cell line = assay: Cytotoxic assay (MTT) in monolayer model, MCF7; type: cell-based; settings: Homo sapiens, 48 h, read-out: IC50 MCF-7 cell line inhibition, monolayer
Procedure: as §7, §6

MCF7 spheroids [7] = assay: Cytotoxicity assay (MTT) in spheroid culture, MCF7; type: cell-based, human
Procedure: as §5, §6

[8] = tested on: human skin fibroblasts (HSF); assay: Cytotoxicity on human skin fibroblasts (SRB method); type: cell-based; settings: HSF, SRB, 72 h
Procedure: In addition to have a good physicochemical profile, it is important for a studied lead to differentiate between cancer cells and highly proliferating non-cancerous cells. Therefore, we assessed compounds MAK-1 and MAK-6 for both the in silico and in vitro physicochemical characteristics as well as for cytotoxic effect on human skin fibroblasts (SKF) cell lines. Cytotoxicity was determined using Sulforhodamine B (SRB) method. Exponentially growing human skin fibroblast cells (Nawah Scientific, Cairo, Egypt) were collected using 0.25% Trypsin-EDTA and were then seeded in 96-well plates at a density of 1000-2000 cells/well in 10% FBS and penicillin/streptomycin supplemented RPMI-1640 medium. After 24 h, cells were treated with different concentrations of test compounds and incubated for 72 h at 37° C. in a humidified atmosphere containing 5% CO2. Next, the cells were fixed by adding trichloroacetic acid (TCA, 10% final conc. in wells) directly to the wells and incubated for 1 h at 4° C., then cells were washed with distilled water 5 times to remove excess TCA, media, serum proteins, and metabolites, followed by air drying. After that, the fixed cells were stained with 0.4% SRB dissolved in 1% acetic acid for 10 min at room temperature, and excess stain was removed by quickly rinsing with 1% acetic acid. The residual acetic acid was removed completely by air drying the plates for 24 h, and the dye was solubilized with Tris buffer (pH=7.4, 10 mM) for 5 min on a shaker at 1600 rpm. The optical density (OD) of each well was measured spectrophotometrically at 564 nm with an ELISA microplate reader (ChroMate-4300, FL, USA). The IC50 values were calculated according to the equation for Boltzman sigmoidal concentration—response curve using the nonlinear regression fitting models (Graph Pad, Prism Version 5).

T47D spheroids [9] = assay: Reactive oxygen species (CellROX) assay, T47D spheroids; type: cell-based, human; settings: 48 h treatment, CellROX Green
Procedure: as §4

MCF7 cell lines = assay: Cytotoxic assays of KAC-12 on breast cancer MCF7 cell lines; type: cell-based, human
AMPK (phospho-protein) = settings: concentration not given; cited from earlier work

T1 sequence (Q13131 whole entry): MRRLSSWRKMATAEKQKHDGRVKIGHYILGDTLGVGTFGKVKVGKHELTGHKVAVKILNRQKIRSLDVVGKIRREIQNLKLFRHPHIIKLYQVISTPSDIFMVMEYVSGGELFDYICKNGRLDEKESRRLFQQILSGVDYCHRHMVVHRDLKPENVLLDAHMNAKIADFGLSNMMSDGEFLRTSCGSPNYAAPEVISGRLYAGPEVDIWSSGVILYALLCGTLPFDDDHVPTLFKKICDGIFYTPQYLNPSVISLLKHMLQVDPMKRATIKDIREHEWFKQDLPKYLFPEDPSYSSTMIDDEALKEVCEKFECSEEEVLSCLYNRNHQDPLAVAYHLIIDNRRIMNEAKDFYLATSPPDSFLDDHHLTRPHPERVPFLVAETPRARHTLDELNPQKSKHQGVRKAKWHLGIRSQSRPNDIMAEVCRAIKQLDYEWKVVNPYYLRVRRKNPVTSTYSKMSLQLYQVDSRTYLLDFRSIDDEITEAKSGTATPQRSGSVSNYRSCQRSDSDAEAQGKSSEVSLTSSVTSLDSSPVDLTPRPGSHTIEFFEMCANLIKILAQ
T1 sequence (Q9Y478 whole entry partner): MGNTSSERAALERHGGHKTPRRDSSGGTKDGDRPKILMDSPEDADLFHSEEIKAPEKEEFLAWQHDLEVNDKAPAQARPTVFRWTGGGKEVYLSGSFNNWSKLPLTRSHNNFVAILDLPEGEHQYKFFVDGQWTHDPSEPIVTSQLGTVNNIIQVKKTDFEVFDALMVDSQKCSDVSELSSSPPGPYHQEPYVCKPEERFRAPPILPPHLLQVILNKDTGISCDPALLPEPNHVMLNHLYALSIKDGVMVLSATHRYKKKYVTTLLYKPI
T1 sequence (Q9UGJ0 whole entry partner): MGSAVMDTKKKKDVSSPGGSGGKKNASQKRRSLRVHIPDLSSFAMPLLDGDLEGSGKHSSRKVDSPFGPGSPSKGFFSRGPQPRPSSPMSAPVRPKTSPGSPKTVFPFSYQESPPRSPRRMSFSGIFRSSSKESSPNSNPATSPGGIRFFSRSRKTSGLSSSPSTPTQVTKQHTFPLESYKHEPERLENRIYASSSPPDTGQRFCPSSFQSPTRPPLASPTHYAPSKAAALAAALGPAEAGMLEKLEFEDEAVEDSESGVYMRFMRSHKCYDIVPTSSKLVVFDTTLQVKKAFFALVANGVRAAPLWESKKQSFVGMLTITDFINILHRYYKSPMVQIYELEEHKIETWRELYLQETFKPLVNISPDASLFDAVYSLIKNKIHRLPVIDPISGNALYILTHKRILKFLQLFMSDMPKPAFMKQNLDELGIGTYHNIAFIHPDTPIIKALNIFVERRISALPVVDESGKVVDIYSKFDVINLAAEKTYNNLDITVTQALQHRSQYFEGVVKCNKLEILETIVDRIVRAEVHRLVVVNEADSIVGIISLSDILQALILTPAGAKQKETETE

Structure (SMILES): COc1cccc(C(=O)Nc2cccnc2CC(=O)NCc2ccccc2)c1
- depolarized cells (mitochondrial membrane), mean±SEM (T47D spheroids [1]): 36.77±0.65%
- dead rate (dead cells), mean±SEM (T47D spheroids [2]): 32.10±0.56%
- dead rate (dead cells), mean±SEM (MCF7 spheroids [3]): 36.48±0.39%
- depolarized cells (mitochondrial membrane), mean±SEM (MCF7 spheroids [4]): 34.00±0.87%
- ROS level, treatment vs control (MCF7 spheroids [5]): 25%
- IC50 (AMPK (A1/B1/G2)): 5.8 nM
- IC50 (T47D spheroids [6]; Homo sapiens, T47D, 3D spheroid model, 48 h, MTT): 3720 ± 30 nM
- reduction of spheroid size (T47D spheroids [6]; T47D spheroids treated at IC50 for 48 h, vs control): noticeable reduction
- IC50 (T47D cell line): 97 nM
- IC50 (MCF7 cell line): 148 nM
- IC50 (MCF7 spheroids [7]; Homo sapiens, MCF7, 3D spheroid model, 48 h, MTT): 19600 ± 525 nM
- reduction of spheroid size (MCF7 spheroids [7]; MCF7 spheroids treated at IC50 for 48 h, vs control): noticeable reduction
- safety to normal cells (human skin fibroblasts) [8]: highly safe
- ROS level, treatment vs control (T47D spheroids [9]): 30%

Structure (SMILES): O=C(Cc1ccc(NC(=O)c2ccc(Cl)o2)cc1)NCc1ccccc1 [MAK-10, N-(4-(2-(benzylamino)-2-oxoethyl)phenyl)-5-chlorofuran-2-carboxamide]
- melting point: 217 °C
- IC50 (MCF7 cell line): 225 nM

Structure (SMILES): O=C(Cc1ccc(NC(=O)c2cccc(Cl)c2)cc1)NCc1ccccc1 [KAC-12]
- IC50 (MCF7 cell lines): 47700 nM
- downregulation of the activated AMPK signal (phosphoprotein) (AMPK (phospho-protein)): 15% and 13%

Structure (SMILES): O=C(Cc1ccc(NC(=O)c2cccc(OCCN3CCOCC3)c2)cc1)NCc1ccccc1 [MAK-3, N-(4-(2-(benzylamino)-2-oxoethyl)phenyl)-3-(2-morpholinoethoxy)benzamide]
- IC50 (T47D cell line): 1 nM

The next lines start with results.

- melting point: 231 °C
Structure (SMILES): O=C(Cc1ccc(NC(=O)c2cncc(Cl)c2)cc1)NCc1ccccc1 [MAK-9, N-(4-(2-(benzylamino)-2-oxoethyl)phenyl)-5-chloronicotinamide]

- melting point: 147 °C
Structure (SMILES): O=C(Cc1ccc(NC(=O)c2ccc(OCCN3CCOCC3)c(Cl)c2)cc1)NCc1ccccc1 [MAK-5, N-(4-(2-(benzylamino)-2-oxoethyl)phenyl)-3-chloro-4-(2-morpholinoethoxy)benzamide]

- melting point: 215 °C
Structure (SMILES): COc1ccc(C(=O)Nc2ccc(CC(=O)NCc3ccccc3)cc2)cc1OC [MAK-2, N-(4-(2-(benzylamino)-2-oxoethyl)phenyl)-3,4-dimethoxybenzamide]
- IC50 (MCF7 cell line): 6 nM

- melting point: 186 °C
Structure (SMILES): COc1ccc(C(=O)Nc2ccc(CC(=O)NCc3ccccc3)cc2)cc1Cl [MAK-4, N-(4-(2-(benzylamino)-2-oxoethyl)phenyl)-3-chloro-4-methoxybenzamide]
- IC50 (MCF7 cell line): 225 nM
